For this test, the system named is cancer stem cells (12037NS). The test is described as follows: Proliferation suppressive effect on cancer stem cells (survival rate, WST-8 / Cell Counting Kit-8). Particulars: for proliferation suppressive effect on cancer stem cells (in words): 10 μM, 3 days, verbal assessment; for Survival Rate(%) of cancer stem cells: DMSO control = 100. In kind it is cell-based. The method, then:
The proliferation suppressive effect of the triazolohalopyrimidine compounds on cancer stem cells was evaluated as follows.
The proliferation suppressive effect of triazolohalopyrimidine compounds on cancer stem cells was evaluated using commercially available anticancer agents and known compounds known to have antitumor effect.
12037NS was used as cancer stem cells. 12037NS are the cells obtained by isolation and purification according to the method referred in Nature 432, No. 18, 396-401 (2004). 12037NS cells are susceptible to cytotoxicity by DMSO (dimethylsulfoxide) used for dilution of test compounds. Accordingly, DMSO was used as control.
Used cancer stem cells were 12037NS which are cultivated cancer stem cells. 12037NS are the cells obtained by isolation and purification according to the method referred in Nature 432, No. 18, 396-401 (2004).
Cancer stem cells (12037NS) were seededat 3.0×10^3 cells/well in a 96-well plate using DMEM (Dulbeco's Modified Eagle Medium).
Test compounds shown in Table 3 were diluted with DMSO and then further diluted with PBS (phosphate buffered saline) to prepare test solutions. The test solution was added to each well to become a final concentration of 10 μM. For controls, DMSO was added to the wells to become a final concentration of 0.1% (v/v).
After adding the test solution, the plate was incubated at 37° C. in a 5% CO2 environment for 3 days.
After incubation, water-soluble tetrazonium salt WST-8 (“Cell Counting Kit-8” coloring reagent; manufactured by Dojindo Laboratories) was added at 10 μL/well to each well and the plate was placed in a 37° C., 5% CO2 environment, and incubated for 2 hours.
The absorbance at 450 nm wavelength was measured for the culture solution in each well of the plate after incubation. WST-8 is reduced by intracellular dehydrogenase to produce water-soluble formazan. The number of living cells can be measured by measuring the absorbance of this formazan at 450 nm.
The survival rate of cancer stem cells was determined by comparing the measured number of living cells with the number of seeded cells.
In the same manner as in [Test Example 1], the survival rate of cancer stem cells was determined for the test compounds shown in Table 4. Triazolohalopyrimidine compound (I)g means 2-(4-hydroxyphenyl)-5-chloro-8-methyl[1.2.4]triazolo[1,5-c]pyrimidine.
(Formazan colour is commonly taken as a measure of viable cells.)

Where [1] appears, read: Test Example 1, test compound 10 μM, 3 days incubation.
[2] abbreviates: Test Example 2, same manner as Test Example 1 (10 μM, 3 days).

The structures appear in SMILES notation.

In the case of `Cc1cnc(Cl)n2nc(-c3ccc(Cl)c(Cl)c3)nc12` [Compound (I)f, 2-(3,4-dichlorophenyl)-5-chloro-8-methyl[1.2.4]triazolo[1,5-c]pyrimidine], the “proliferation suppressive effect on cancer stem cells (in words)” value is “significantly superior to those of commercially available anticancer agents”. With `O=c1[nH]cc(F)c(=O)[nH]1` [5-Fluorouracil], the “Survival Rate(%) of cancer stem cells” value under setting [1] stood at 80%. In the case of `Cc1cnc(Cl)n2nc(-c3ccc(O)cc3)nc12` [Compound (I)g, 2-(4-hydroxyphenyl)-5-chloro-8-methyl[1.2.4]triazolo[1,5-c]pyrimidine], the “Survival Rate(%) of cancer stem cells” value under setting [2] is given as 45%. On to `Cc1cnc(Cl)n2nc(-c3ccc(Br)cc3)nc12` [Compound (I)d, 2-(4-bromophenyl)-5-chloro-8-methyl[1.2.4]triazolo[1,5-c]pyrimidine], for which the “proliferation suppressive effect on cancer stem cells (in words)” value is “significantly superior to those of commercially available anticancer agents”. For `Cn1nnc2c(C(N)=O)ncn2c1=O` [Temozolomide], the “Survival Rate(%) of cancer stem cells” value under setting [1] came to 65% and the “Survival Rate(%) of cancer stem cells” value under setting [2] is reported as 75%.

Values taken from patent publication US20250262212A1, “COMPOSITION FOR SUPPRESSING PROLIFERATION OF CANCER STEM CELLS” (Chemiteras, Inc., priority 2022, published 2025).
